Patent US9113629B2, “4-amino-6-(4-substituted-phenyl)-picolinates and 6-amino-2-(4-substituted-phenyl)-pyrimidine-4-carboxylates and their use as herbicides” (DOW AGROSCIENCES LLC, priority 2013, dated 2015)

Key:
[1] = system: VERPE: bird's-eye speedwell (veronica persica); assay: Post-emergent Test III, herbicidal activity in wheat and barley; format: in vivo; conditions: for pest or weed control at 35 g/ha / pest or weed control at 70 g/ha / pest or weed control at 140 g/ha: Veronica persica, post-emergence, 504 h, read-out: Visual Growth Reduction (%) 21 Days After Application VERPE; for pest or weed control at 35 g/ha: 35 g ai/ha; for pest or weed control at 70 g/ha: 70 g ai/ha; for pest or weed control at 140 g/ha: 140 g ai/ha; for GR50 VERPE / GR80 VERPE: probit analysis, 21 days after application; for GR50 VERPE: dose for growth reduction of 50 percent; for GR80 VERPE: dose for growth reduction of 80 percent
How it was run: (§1)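 Plants at the second to third true-leaf stage, grown in a greenhouse at about 18/17 °C with a 14 h photoperiod, were sprayed post-emergence at 187 L/ha with the high rate and ½× to 1/16× serial dilutions in an acetone/DMSO/crop-oil/surfactant carrier. Injury was rated visually at 21 d on a 0–100% scale, and GR20–GR90 were derived by probit analysis.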

[2] = system: TRZSS: wheat, including spring and winter (Triticum aestivum); assay: as above; format: in vivo; conditions: for pest or weed control at 35 g/ha / pest or weed control at 70 g/ha / pest or weed control at 140 g/ha: Triticum aestivum, post-emergence, 504 h, read-out: Visual Growth Reduction (%) 21 Days After Application TRZSS; for pest or weed control at 35 g/ha: 35 g ai/ha; for pest or weed control at 70 g/ha: 70 g ai/ha; for pest or weed control at 140 g/ha: 140 g ai/ha; for GR20 TRZSS: probit analysis, dose for growth reduction of 20 percent, 21 days after application, crop
How it was run: as §1

[3] = as above; format: in vivo, Lolium multiflorum, Lolium rigidum; conditions: Lolium multiflorum, post-emergence, 504 h, read-out: Visual Growth Reduction (%) 21 Days After Application LOLSS; for pest or weed control at 35 g/ha: 35 g ai/ha; for pest or weed control at 70 g/ha: 70 g ai/ha; for pest or weed control at 140 g/ha: 140 g ai/ha
How it was run: as §1

[4] = system: HORSS: barley, including spring and winter (Hordeum vulgare); assay: as above; format: in vivo; conditions: for pest or weed control at 35 g/ha / pest or weed control at 70 g/ha / pest or weed control at 140 g/ha: Hordeum vulgare, post-emergence, 504 h, read-out: Visual Growth Reduction (%) 21 Days After Application HORSS; for pest or weed control at 35 g/ha: 35 g ai/ha; for pest or weed control at 70 g/ha: 70 g ai/ha; for pest or weed control at 140 g/ha: 140 g ai/ha; for GR20 HORSS: probit analysis, dose for growth reduction of 20 percent, 21 days after application, crop
How it was run: as §1

[5] = system: LOLSS: ryegrass including, Italian ryegrass (Lolium multiflorum), rigid ryegrass (Lolium rigidum), annual ryegrass (Lolium multiflorum subsp. Gaudini); assay: as above; format: in vivo; conditions: probit analysis, 21 days after application; for GR50 LOLSS: dose for growth reduction of 50 percent; for GR80 LOLSS: dose for growth reduction of 80 percent
How it was run: as §1

[6] = system: APESV: bentgrass (Apera spica-venti); assay: as above; format: in vivo; conditions: for pest or weed control at 35 g/ha / pest or weed control at 70 g/ha / pest or weed control at 140 g/ha: Apera spica-venti, post-emergence, 504 h, read-out: Visual Growth Reduction (%) 21 Days After Application APESV; for pest or weed control at 35 g/ha: 35 g ai/ha; for pest or weed control at 70 g/ha: 70 g ai/ha; for pest or weed control at 140 g/ha: 140 g ai/ha; for GR50 APESV / GR80 APESV: probit analysis, 21 days after application; for GR50 APESV: dose for growth reduction of 50 percent; for GR80 APESV: dose for growth reduction of 80 percent
How it was run: as §1

[7] = system: MATSS: scented mayweed (Matricaria chamomilla), pineappleweed (Matricaria matricarioides); assay: as above; format: in vivo; conditions: for pest or weed control at 35 g/ha / pest or weed control at 70 g/ha / pest or weed control at 140 g/ha: Matricaria chamomilla, post-emergence, 504 h, read-out: Visual Growth Reduction (%) 21 Days After Application MATSS; for pest or weed control at 35 g/ha: 35 g ai/ha; for pest or weed control at 70 g/ha: 70 g ai/ha; for pest or weed control at 140 g/ha: 140 g ai/ha; for GR50 MATSS / GR80 MATSS: probit analysis, 21 days after application; for GR50 MATSS: dose for growth reduction of 50 percent; for GR80 MATSS: dose for growth reduction of 80 percent
How it was run: as §1

[8] = system: KCHSC: kochia (Kochia scoparia); assay: as above; format: in vivo; conditions: for pest or weed control at 35 g/ha / pest or weed control at 70 g/ha / pest or weed control at 140 g/ha: Bassia scoparia, post-emergence, 504 h, read-out: Visual Growth Reduction (%) 21 Days After Application KCHSC; for pest or weed control at 35 g/ha: 35 g ai/ha; for pest or weed control at 70 g/ha: 70 g ai/ha; for pest or weed control at 140 g/ha: 140 g ai/ha; for GR50 KCHSC / GR80 KCHSC: probit analysis, 21 days after application; for GR50 KCHSC: dose for growth reduction of 50 percent; for GR80 KCHSC: dose for growth reduction of 80 percent
How it was run: as §1

LAMSS = assay: as above; format: in vivo; conditions: for pest or weed control at 35 g/ha / pest or weed control at 70 g/ha / pest or weed control at 140 g/ha: post-emergence, 504 h, read-out: Visual Growth Reduction (%) 21 Days After Application LAMSS; for pest or weed control at 35 g/ha: 35 g ai/ha; for pest or weed control at 70 g/ha: 70 g ai/ha; for pest or weed control at 140 g/ha: 140 g ai/ha; for GR50 LAMSS / GR80 LAMSS: probit analysis, 21 days after application; for GR50 LAMSS: dose for growth reduction of 50 percent; for GR80 LAMSS: dose for growth reduction of 80 percent
How it was run: as §1

Row | Structure (SMILES) | pest or weed control at 35 g/ha [1] [%] | pest or weed control at 70 g/ha [1] [%] | pest or weed control at 140 g/ha [1] [%] | GR50 VERPE [1] [g ai/ha] | GR80 VERPE [1] [g ai/ha] | pest or weed control at 35 g/ha [2] [%] | pest or weed control at 70 g/ha [2] [%] | pest or weed control at 140 g/ha [2] [%] | GR20 TRZSS [2] [g ai/ha] | pest or weed control at 35 g/ha [3] [%] | pest or weed control at 70 g/ha [3] [%] | pest or weed control at 140 g/ha [3] [%] | pest or weed control at 35 g/ha [4] [%] | pest or weed control at 70 g/ha [4] [%] | pest or weed control at 140 g/ha [4] [%] | GR20 HORSS [4] [g ai/ha] | GR50 LOLSS [5] [g ai/ha] | GR80 LOLSS [5] [g ai/ha] | pest or weed control at 35 g/ha [6] [%] | pest or weed control at 70 g/ha [6] [%] | other results
1 | Nc1cc(-c2ccc(Br)c(F)c2F)nc(C(=O)O)c1Cl [Compound 91] | 30 to 44 | 30 to 44 | 45 to 59 | 123 | >140 | 75 to 84 | 85 to 94 | 85 to 94 | 1 | 0 to 29 | 0 to 29 | 0 to 29 | 75 to 84 | 75 to 84 | 85 to 94 | 1 | >140 | >140 | 45 to 59 | 45 to 59 | pest or weed control at 140 g/ha [6]: 60 to 74%; GR50 APESV [6]: 67 g ai/ha; GR80 APESV [6]: >140 g ai/ha; pest or weed control at 35 g/ha [7]: 60 to 74%; pest or weed control at 70 g/ha [7]: 75 to 84%; pest or weed control at 140 g/ha [7]: 85 to 94%; GR50 MATSS [7]: 11 g ai/ha; GR80 MATSS [7]: 75 g ai/ha; pest or weed control at 35 g/ha [8]: 75 to 84%; pest or weed control at 70 g/ha [8]: 85 to 94%; pest or weed control at 140 g/ha [8]: 85 to 94%; GR50 KCHSC [8]: 2 g ai/ha; GR80 KCHSC [8]: 47 g ai/ha; pest or weed control at 35 g/ha (LAMSS): 95 to 100%; pest or weed control at 70 g/ha (LAMSS): 95 to 100%; pest or weed control at 140 g/ha (LAMSS): 95 to 100%; GR50 LAMSS (LAMSS): 1 g ai/ha; GR80 LAMSS (LAMSS): 3 g ai/ha
2 | Nc1c(F)c(-c2ccc(Cl)c(F)c2)nc(C(=O)O)c1Cl [Compound 217] | 60 to 74 | 60 to 74 | 60 to 74 | 19 | 73 | 75 to 84 | 75 to 84 | 85 to 94 | 2 | 45 to 59 | 60 to 74 | 60 to 74 | 75 to 84 | 75 to 84 | 75 to 84 | 7 | 32 | >140 | 85 to 94 | 85 to 94 | pest or weed control at 140 g/ha [6]: 95 to 100%; GR50 APESV [6]: 6 g ai/ha; GR80 APESV [6]: 15 g ai/ha; pest or weed control at 35 g/ha [7]: 85 to 94%; pest or weed control at 70 g/ha [7]: 85 to 94%; pest or weed control at 140 g/ha [7]: 85 to 94%; GR50 MATSS [7]: 34 g ai/ha; GR80 MATSS [7]: >140 g ai/ha; pest or weed control at 35 g/ha [8]: 85 to 94%; pest or weed control at 70 g/ha [8]: 95 to 100%; pest or weed control at 140 g/ha [8]: 95 to 100%; GR50 KCHSC [8]: 2 g ai/ha; GR80 KCHSC [8]: 6 g ai/ha; pest or weed control at 35 g/ha (LAMSS): 95 to 100%; pest or weed control at 70 g/ha (LAMSS): 95 to 100%; pest or weed control at 140 g/ha (LAMSS): 95 to 100%; GR50 LAMSS (LAMSS): 1 g ai/ha; GR80 LAMSS (LAMSS): 2 g ai/ha
